Reference: patent publication US6015878A, “Antitumor agents isolated from intestinal mucosa, a method for their isolation and their application” (Alexandrov, Christo Alexandrov, priority 1995, dated 2000)
Ends that are not written are not given here.

Assays:
Type in all cases: in vivo
intestines [1] = assay: Enterocytic cellularity in intestines of treated mice (morphogenic effect); conditions: for Cellularity: 7 hours after treatment of mice, in comparison with control animals not treated with IEGs
Method: (§1) Laboratory experiments were carried out to accomplish the third object concerning the effect of preparations on biosynthetic processes which was assessed by the incorporation of H^3 -thymidine (DNA-synthesis) and C^14 -uridine (RNA synthesis) in various regions of the intestines of the mice tested. The preparation's morphogenic effect was assessed by the enterocytic cellularity and DNA concentration in the same regions.
(§2) Each fraction obtained in purifying IEG (see Object 1) was tested on mice. 3 mg of the peptide content of the fraction was administered intraperitoneally simultaneously with the testing reagent (isotope); the animals were then killed and investigated 7 hours afterwards. […] Both IEGs have a suppressive effect on DNA synthesis especially in the lower regions of intestines: IEG1 by 45%, IEG2 --by 48%. […] In this way it switches on the chain of molecular mechanisms by which it acts on the smooth muscle motility.

intestines [2] = assay: Incorporation of C^14-uridine (RNA synthesis) in intestines of treated mice; conditions: 7 hours after treatment of mice, in comparison with control animals not treated with IEGs
Method: as §1, §2

intestines [3] = assay: Incorporation of H^3-thymidine (DNA synthesis) in intestines of treated mice; conditions: for Incorporation H^3-thymidine: 7 hours after treatment of mice, in comparison with control animals not treated with IEGs
Method: as §1, §2

intestines [4] = assay: DNA concentration in intestines of treated mice (morphogenic effect); conditions: 7 hours after treatment of mice, in comparison with control animals not treated with IEGs
Method: as §1, §2

[5] = Middle section of the intestines

## Arg-Arg-Asp-Asp-His-Arg-NH2 (RRDDHR-NH2) [IEG2, ID; NO]
Intestines [1]; Duodenum
  Cellularity: 88%
Intestines [1]; Ileum
  Cellularity: 85%
Intestines [1]; Jejunum
  Cellularity: 75%
Intestines [1]; [5]
  Cellularity: 83%
Intestines [1]; mice, 3 mg peptide content intraperitoneally, 7 hours
  Average reduction in enterocyte number: 20%
Intestines [2]; Duodenum
  Incorporation C^14-uridine: 78%
Intestines [2]; Ileum
  Incorporation C^14-uridine: 74%
Intestines [2]; Jejunum
  Incorporation C^14-uridine: 78%
Intestines [2]; [5]
  Incorporation C^14-uridine: 74%
Intestines [3]; Duodenum
  Incorporation H^3-thymidine: 77%
Intestines [3]; Ileum
  Incorporation H^3-thymidine: 55%
Intestines [3]; Jejunum
  Incorporation H^3-thymidine: 88%
Intestines [3]; [5]
  Incorporation H^3-thymidine: 48%
Intestines [3]; lower regions of intestines, mice, 3 mg intraperitoneally, 7 hours
  suppressive effect on DNA synthesis: 48%
Intestines [4]; Duodenum
  DNA concentration: 68%
Intestines [4]; Ileum
  DNA concentration: 77%
Intestines [4]; Jejunum
  DNA concentration: 97%
Intestines [4]; [5]
  DNA concentration: 62%
